The test system of one assay is HEK293. The assay can be described thus: HEK293 proliferation, BrdU uptake. Type of assay: cell-based. As to conditions: Homo sapiens. As to the method:
(§1) Cells were depleted of fetal calf serum (FCS) for 12 hours. They were then stimulated to proliferate by addition of ConA (10 μg/ml) for PBMC from healthy individuals and for Jurkat cells, FCS (10%) for HEK293 and A375 cells, PDGF (30 ng/ml) for NIH 3T3 cells, and EGF (30 ng/ml) for MDA-MB-231, Cells (1×10^5) were cultured in 96-well plates for 3 days in the presence or absence of inhibitors at the concentrations specified in the text. Each condition was tested in duplicate wells.
(§2) Proliferation was assessed by BrdU incorporation using a colorimetric ELISA kit (Roche, Germany). Subsequent to labeling with 10 μM BrdU, DNA was denatured and the cells were incubated with anti-BrdU-POD, prior to the addition of colorimetric substrate (TMB). The reaction product was quantified by measuring absorbance at 450 nm in an ELISA plate reader (ELx800 BIO-TEK Instruments Inc.).
(§3) To characterize the mode of action of 2 (S101) in more detail, we first examined whether 2 inhibits non-hematopoietic cell lines. We studied the effect of 2 on the growth of four cell lines: NIH 3T3 (mouse embryonic fibroblasts), A-431 (human vulval carcinoma cells), MDA-MB-468 (human breast carcinoma cells), and PANC-1 (human pancreatic carcinoma cells) (FIGS. 1A-B). We also tested the inhibitors on human keratinocytes. […]

A further assay concerns PBMC. The assay can be described thus: PBMC proliferation, BrdU incorporation. As to conditions: Homo sapiens. Format: cell-based, human. The essentials: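 Donor PBMC, FCS-depleted 12 h, stimulated with ConA (10 μg/ml) and cultured 3 days (1×10^5 cells/well, duplicate) with inhibitor. Proliferation read as 10 μM BrdU incorporation by colorimetric ELISA (anti-BrdU-POD, TMB), absorbance 450 nm.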

For assay [1], the system named is CD8+ (2C) and CD4+ (TEA) T cells. The assay can be described thus: MLR, double-positive CD8+1B2+ (2C) or CD4+/Va2+ (TEA) effector cells by FACS. Format: cell-based, mouse. As to conditions: 72 h MLR. From the text: Mice used included male and female 6- to 12-week-old CB6/F1 mice, obtained from the Roscoe B. Jackson Memorial Laboratory (The Jackson Laboratory, Bar Harbor, Me., http://www.jax.org). A breeding pair of transgenic (Tg) H-2b mice expressing the T-cell antigen receptor (TCR) 1B2 from the CD8+ clone 2C with specificity for H-2Ld was kindly provided by Janko Nikolic-Zugic (Memorial Sloan-Kettering Cancer Center, New York, http://www.mskcc.org). A breeding pair of Tg H-2b mice expressing the TCR from the CD4+ clone known as TEA with specificity for I-Ead allopeptide, cross-presented by host APC and bound to I-Ab and was kindly provided by Alexander Y. Rudensky (University of Washington, Seattle). I-Ead allopeptide corresponds to the positions 52 to 68 from the alpha-chain of I-E class II molecules and is expressed in all APCs from H-2b/I-E+ strains (CB6F1-hybrid of C57BL/6 and Balb/c). C57BL/6 mice are H-2b but I-E−, whereas BALB/c are H-2d and I-E+, and therefore their F1 hybrids are H-2b/1-E+ and able to directly present antigen.
Responder 2C splenocytes were harvested, and the cell suspensions were treated with Tris-buffered ammonium chloride to remove RBC. […] On day 3, the MLR cultures were harvested, and analyzed by FACS for CD4 or CD8 levels.
FACS analysis was performed using a modified FACScan (BD Biosciences, Mountain View, Calif.). Fluorescence data were collected during one minute. […]
(In flow cytometry, cells or beads pass a laser one at a time.)

The next assay has as its system NIH3T3. In words: NIH3T3 proliferation, BrdU uptake. Format: cell-based. As to conditions: Mus musculus. As to the method:
as §1, §2, §3

In another assay the test system is PBMC and Jurkat cells. In words: Cell cycle analysis by FACS. Format: cell-based, human. As to conditions: treated cells, 0.5 μM S101. As to the method:
The effects of the inhibition of the cell cycle were analyzed with a fluorescence-activated cell sorter (FACS). Cells were grown in 60 mm diameter plates (Nunc) and were treated with inhibitor for 12 and 24 h. After the indicated time, cells were pooled, pelleted by centrifugation, washed in phosphate-buffered saline (PBS), and fixed with cold 70% ethanol for a minimum of 12 h. Cells were re-pelleted and resuspended in PBS. 50 μg/ml of RNase A was added in the dark for 30 minutes followed by 5 μg/ml of propidium iodide for FACS analysis (Becton Dickinson FACScan).
The fraction of cells in G2 increased from 30% in the untreated cells to 50% in the treated cells.

The next assay concerns Jurkat cells. In words: Jurkat cell proliferation, BrdU incorporation. As to conditions: BrdU uptake. Format: cell-based, human. In outline:
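Jurkat cells were serum-depleted for 12 h, then stimulated with ConA (10 μg/ml). Cells (1×10^5) were cultured for 3 days with or without inhibitors in duplicate wells. Proliferation was measured by 10 μM BrdU labelling and colorimetric anti-BrdU-POD ELISA (TMB, absorbance 450 nm).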
Background: Dividing cells build labelled thymidine or BrdU into new DNA.

Each structure is given as a SMILES string. Where two headings read alike, the source gives them in different places.

With `COc1cc(-c2nc(Nc3ccc(C)cc3)c3ccccc3n2)cc(OC)c1OC` [Compound 2, N-p-tolyl-2-(3,4,5-trimethoxyphenyl)quinazolin-4-amine], the IC50 is approximately 10000 nM with HEK293 (HEK293, non-stimulated, read-out: IC50 of non-stimulated cells); approximately 10000 nM with HEK293 (HEK293, serum (FCS 10%) activated, read-out: IC50 of stimulated cells); approximately 100 nM in the assay with PBMC (PBMC, ConA 10 μg/ml, 72 h, read-out: IC50 ConA-stimulated proliferation of PBMC); approximately 500 nM in the assay with PBMC (PBMC, ODN2006 0.5 μg/ml or LPS 50 μg/ml, 72 h, read-out: IC50 ODN2006 and LPS-stimulated proliferation of PBMCs); 70 nM in the assay with PBMC (ConA-stimulated PBMC, BrdU uptake, nM ± SD, read-out: IC50 PBMC proliferation inhibition); 50 nM in the assay with PBMC (PBMC, non-stimulated, BrdU uptake, read-out: IC50 of non-stimulated cells). Besides, the IC50 was approximately 7000 nM in the assay on NIH3T3 (NIH3T3, PDGF (30 ng/ml) activated, read-out: IC50 of stimulated cells); approximately 3000 nM with NIH3T3 (NIH3T3, non-stimulated, read-out: IC50 of non-stimulated cells); 29 ± 0.23 nM in the assay on Jurkat cells (nM ± SD, read-out: IC50 Jurkat cells proliferation inhibition); 30 nM in the assay with Jurkat cells (Homo sapiens, Jurkat, nM ± SD, read-out: IC50 Jurkat cells proliferation inhibition); 50 nM in the assay with Jurkat cells (Homo sapiens, Jurkat, non-stimulated, read-out: IC50 of non-stimulated cells); 100 nM in the assay on Jurkat cells (Homo sapiens, Jurkat, stimulated, read-out: IC50 of stimulated cells). In addition, the “percentage of double-positive effector cells” value in assay [1] was “reduced in a dose dependent manner”. This molecule yielded a sub-G1 population in the assay on PBMC and Jurkat cells (untreated 2%) of 9.5%. In addition, the “fraction of cells in G2” value in the assay with PBMC and Jurkat cells (untreated 30%) came out at 50%.
